Columns and labels:
hTRPV3 = biological target: T1, hTRPV3 (Homo sapiens, UniProt Q8NET8); experiment: Whole cell patch clamp inhibition rate test on HEK-293 cells instantaneously expressing TRPV3; type: cell-based; settings: HEK293; hTRPV3, single concentration 0.3 μM
T1 construct: expressed in transfected cells; host or cells: HEK-293
T1 sequence (Q8NET8 1-790): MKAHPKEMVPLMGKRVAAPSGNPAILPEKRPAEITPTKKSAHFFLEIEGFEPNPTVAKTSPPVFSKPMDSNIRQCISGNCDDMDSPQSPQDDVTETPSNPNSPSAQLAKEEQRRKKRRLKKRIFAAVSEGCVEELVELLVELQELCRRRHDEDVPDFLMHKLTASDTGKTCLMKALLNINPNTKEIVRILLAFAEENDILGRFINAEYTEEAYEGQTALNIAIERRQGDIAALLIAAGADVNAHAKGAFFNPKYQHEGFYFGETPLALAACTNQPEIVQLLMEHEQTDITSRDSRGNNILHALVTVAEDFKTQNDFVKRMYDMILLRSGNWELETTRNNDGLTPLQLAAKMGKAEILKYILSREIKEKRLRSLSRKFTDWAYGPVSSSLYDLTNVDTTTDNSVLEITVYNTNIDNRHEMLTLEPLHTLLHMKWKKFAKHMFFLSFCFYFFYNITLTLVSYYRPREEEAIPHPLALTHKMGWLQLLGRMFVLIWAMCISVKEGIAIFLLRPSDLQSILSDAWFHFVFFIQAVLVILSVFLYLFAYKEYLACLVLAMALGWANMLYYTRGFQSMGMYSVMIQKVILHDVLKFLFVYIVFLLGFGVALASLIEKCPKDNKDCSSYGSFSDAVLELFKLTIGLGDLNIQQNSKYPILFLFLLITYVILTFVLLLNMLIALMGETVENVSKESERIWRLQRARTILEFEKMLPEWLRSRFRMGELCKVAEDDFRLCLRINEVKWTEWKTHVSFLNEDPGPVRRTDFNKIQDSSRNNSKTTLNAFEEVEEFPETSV
Summary of the method: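 HEK-293 cells transiently transfected with TRPV3, recorded next-but-one day by whole-cell patch clamp at room temperature: holding −80 mV, ramp −100 to 100 mV over 100 ms every 5 s, peak current monitored. Ascending concentrations perfused, 5 min each; each cell its own control, at least two cells per concentration.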

[1] = Stability assessment of compounds at room temperature under 92.5% humidity (LC-MS); type: physicochemical; settings: 92.5% humidity (open), after 5 days
Description: Taking the compound of Example 21 and KM-001-E1 in WO2021154966A1 as examples, the stability thereof was compared:
Compound of Example 21 and KM-001-E1 were accurately weighed and placed in penicillin bottles, and placed at room temperature under 92.5% humidity (open) conditions for 5-10 days to investigate the stability of the compounds.
• instrument: Thermo U3000-ISQEC • column: Xtimate UHPLC C18 1.8 μm 4.6*50 mm • Column temperature: 35° C. • wavelength: 210 nm, 254 nm • mobile phase A: 0.05% formic acid aqueous solution; mobile phase B: 0.05% formic acid acetonitrile; gradient: 30% B 0-1.2 min, 95% B 1.2-3.3 min, 30% B 3.3-4.5 min;
Analyzing the degradation impurities of each compound under 92.5% humidity conditions using LC-MS: The main impurities in Example 21 had m/z 427.17, with a retention time of 2.55 minutes. After being left for 10 days, the peak area proportion was only 0.3%; The main impurities in KM-001-E1 has m/z=431.14 and m/z=415.16, with retention times of 2.31 minutes and 2.64 minutes, respectively. […] Based on LC-MS and NMR data analysis, it can be inferred that the main impurities produced in Example 21 are ketones, while the main impurities produced in KM-001-E1 are aldehydes and carboxylic acids.

| Structure (SMILES) | inhibition at 0.3 µM (hTRPV3) [%] | peak area proportion of main impurity (m/z=415.16) [1] [%] | peak area proportion of main impurity (m/z=431.14) [1] [%] |
| --- | --- | --- | --- |
| O=C(c1ccc(F)cn1)N1CCC2(CC(O)c3cc(-c4ccc(F)cc4C4CC4)ccc32)C1 (stereo not shown) [Example 163, (5-(2-cyclopropyl-4-fluorophenyl)-3-hydroxy-2,3-dihydrospiro[indene-1,3′-pyrrolidine]-1′-yl)(5-fluoropyridin-2-yl) ketone] | 70 to 100 |  |  |
| CC(C)(C#N)c1ccccc1-c1ccc2c(c1)C(O)CC21CCN(C(=O)c2ccc(F)cn2)C1 (stereo not shown) [Example 164, 2-(2-(1′-(5-fluoropyridoyl)-3-hydroxy-2,3-dihydrospiro[indene-1,3′-pyrrolidine]-5-yl)phenyl)-2-methyl propionitrile] | 50 to 70 |  |  |
| O=C(c1ccc(F)cn1)N1CC[C@H](c2ccc(-c3ccccc3C3CC3)cc2CO)C1 [KM-001-E1] |  | 2.43 | 2.48 |
